Results: patent publication US20200079812A1, “UV-B ABSORBING COMPOUNDS ISOLATED FROM PLANTS” (MAX-PLANCK-GESELLSCHAFT ZUR FÖRDERUNG DER WISSENSCHAFTEN …, priority 2015, published 2020)
Several values for one entry are separate records, joined by “and”; a condition that tells them apart may be missing. Equal entries are not always repeated.

Assay: UV-B absorption profile (UV-VIS spectra, HPLC-PDA profiling)
Type: physicochemical
Protocol: Column chromatography was carried out over ODS (Nacalai Tesque, Cosmosil 75C18-OPN). HPLC analysis was carried out on an Atlantis® (ϕ4.6×150 mm, Waters) at a flow rate of 0.5 ml min^1. Preparative HPLC was performed on a LC 10A system (Shimadzu) using an Inertsil® ODS-EP 5 m ($6.0×150 mm) at 30° C. and monitoring was accomplished by PDA (200-600 nm). HPLC-PDA-ESI-MS (HPLC/photodiode array detection/electrospray ionization mass spectrometry) was performed on a Finnigan LCQ-DECA mass spectrometer (ThermoQuest, San Jose, Calif., USA) and an Agilent HPLC 1100 series (Agilent Technologies, Palo Alto, Calif., USA). HR-ESI-MS was performed on an Exactive™ mass spectrometer (ThermoQuest, San Jose, Calif., USA). Optical rotations were determined on a JASCO P-1020. UV spectra were recorded on a JASCO V-560. NMR data were recorded on JEOL JNM ECP-600. The deuterated solvent CD3OD was used for peak 4. Coupling constants are expressed in Hz.
UV-VIS spectra in the range between 260 nm and 450 nm were recorded and analyzed via HPLC-PDA profiling for kaempferol-3-Glc-2″-Rha-7Rha (FIG. 3A), saiginol A (kaempferol-3-Glc-2″-Rha-6″-sinapoyl-7Rha, FIG. 3B) and sinapoyl-glucose (FIG. 3C). HPLC-PDA (HPLC/photodiode array detection) was performed on Dionex Ultimate 3000 system (San Jose, Calif., USA). […]

## CC1OC(Oc2cc(O)c3c(=O)c(OC4OC(CO)C(O)C(O)C4OC4OC(C)C(O)C(O)C4O)c(-c4ccc(O)cc4)oc3c2)C(O)C(O)C1O (centres unmarked) [kaempferol-3-Glc-2″-Rha-7Rha, kaempferol-3-O-Glc-2″-O-Rha-7-O-Rha, reference compound]
UV-VIS spectra 260-450 nm, HPLC-PDA profiling, FIG. 3
  UV-B absorption (efficiency / UV-B absorbent properties): much less efficient

## COc1cc(/C=C/C(=O)OC[C@H]2O[C@@H](Oc3c(-c4ccc(O)cc4)oc4cc(O[C@@H]5O[C@@H](C)[C@H](O)[C@@H](O)[C@H]5O)cc(O)c4c3=O)[C@H](O[C@@H]3O[C@@H](C)[C@H](O)[C@@H](O)[C@H]3O)[C@@H](O)[C@@H]2O)cc(OC)c1O [Saiginol A, Kaempferol-3-O-[2-O-(α-L-rhamnopyranosyl)-6-O-(sinapoyl)-β-D-glucopyranoside]-7-O-α-L-rhamnopyranoside]
UV-VIS spectrum, UV (MeOH)
  Amax (UV-VIS absorption maximum): 201.5 nm and 223.0 nm and 266.5 nm and 331.5 nm
